Test results as given in article PMC4496826, “Nanostructured lipid carriers for percutaneous administration of alkaloids isolated from Aconitum sinomontanum” (Journal of Nanobiotechnology, 2015).
Converted amounts (≈) assume the structure as drawn. Counter-ions that a name gives are not always drawn.

Legend:
[1] = tested on: CCC-ESF cells; format: cell-based, human; details: 30 min pre-incubation with inhibitor, vs. control
Experimental: (§1) Endocytosis mechanisms were assessed using cellular uptake assays in the presence of chemicals known to inhibit specific endocytosis pathways. Cells were incubated with CPZ, FLP, GNT, CCD, DMA, NaN3, or MS (at […], respectively) for 30 min at 37°C. After exposure to these inhibitors, 200 µL of C6-labeled NLCs was added to each well and incubated for 30 min. After the incubation, cells were prepared for flow cytometry as described earlier and the data for at least 20,000 cells were acquired. The cells treated with C6-labeled NLCs alone were considered as the control cells.

[2] = tested on: HaCaT cells; assay: Endocytic pathway: uptake of C6-labeled NLCs in presence of endocytosis inhibitors; format: cell-based, human; details: 30 min pre-incubation with inhibitor, vs. control
Experimental: as §1

[3] = tested on: mice; design: method as in ref 5 = [5]; 5. Guan YZ Shi YB Wang H Summary on the advanced research of lappaconite hydrobromide Theory Pr Chin Med 2005 15 1838 1840; details: cited from earlier work
[4] = tested on: rats; design: method as in ref 5 = [5]; 5. Guan YZ Shi YB Wang H Summary on the advanced research of lappaconite hydrobromide Theory Pr Chin Med 2005 15 1838 1840; details: cited from earlier work
[5] = Aqueous solubility in the release medium; format: physicochemical; details: normal saline containing 20% PEG 400
[6] = design: method as in ref 6 = [6]; 6. Liang ZF Lyu YP Yuan W Liu YL Zhu XC Dose-effect relationship of lappaconitine Chin Pharmacol Bull 1993 9 146; details: per os; cited from earlier work

| Compound | effect on internalization/uptake of C6-labeled NLCs [1] | further results |
| --- | --- | --- |
| O=c1c(-c2ccc(O)cc2)coc2cc(O)cc(O)c12 [GNT, genistein] | did not significantly affect |  |
| CCCCC[C@@H](O)[C@H]1C(=O)O[C@H](C)[C@@H](O)/C=C/C=C/C=C/C=C/C=C(\C)[C@@H](O)C[C@H](O)C[C@H](O)C[C@H](O)C[C@H](O)C[C@H](O)C[C@@H]1O [FLP, filipin III] | significantly inhibited | effect on uptake of C6-labeled NLCs (average fluorescence intensity) [2]: significantly reduced |
| monensin sodium [MS] | did not significantly affect |  |
| C=C1[C@@H](C)[C@H]2[C@H](Cc3ccccc3)NC(=O)[C@]23[C@H](OC(C)=O)/C=C/[C@@](C)(O)C(=O)[C@@H](C)C/C=C/[C@H]3[C@@H]1O [CCD, cytochalasin D] | significantly inhibited |  |
| [N-]=[N+]=[N-].[Na+] [NaN3, sodium azide] | did not significantly affect |  |
| CCN1C[C@]2(OC(=O)c3ccccc3NC(C)=O)CC[C@H](OC)[C@@]34[C@@H]2C[C@@H]([C@@H]13)[C@@]1(O)C[C@H](OC)[C@H]2C[C@@H]4[C@]1(O)[C@H]2OC [LA, lappaconitine] |  | oral LD50 [3]: 32.4 mg/kg; oral LD50 [4]: 20 mg/kg; aqueous solubility in the medium [5]: 849.79 ± 36.95 µg/mL (≈ 1450 µM); certain safety factor (CSF) [6]: 1.01; standard safety margin (SSM) [6]: 1.0% |
| CCN1C[C@]2(OC(=O)c3ccccc3NC(C)=O)CC[C@H](OC)C34C1C(O)(C[C@@H]32)[C@@]1(O)C[C@H](OC)[C@H]2C[C@@H]4[C@]1(O)[C@H]2OC [RAN, ranaconitine] |  | aqueous solubility in the medium [5]: 582.06 ± 16.27 µg/mL (≈ 969 µM) |
| CN(C)c1nc(N)c(C(=O)NC(=N)N)nc1Cl [DMA, 5-(N,N-dimethyl)-amiloride hydrochloride] | did not significantly affect |  |
| CN(C)CCCN1c2ccccc2Sc2ccc(Cl)cc21 [CPZ, chlorpromazine] | did not significantly affect |  |
